In test [1] the test system is bone marrow stromal cells of LMNA^G609G/G609G mice. The test is described as follows: Crystal violet staining colony formation assay of mouse bone marrow stromal cells. The conditions noted are these: mice treated with 50 mg/kg CBD, vs LMNA^G609G/G609G control mice and wildtype mice; 12 days of culture. The format is in vivo. How it is done:
In the step of isolating the mouse bone marrow stromal cells for measurement of the clonogenicity, mice were sacrificed and placed inside tissue culture hood. The femur was dissected out using sterile utensils. The mouse bone marrow stromal cells were flushed out of femur using a 29G needle with 1 mL of ice-cold phosphate buffered saline (PBS). The bone marrow stromal cells collected were centrifuged at 3000 rpm for 5 minutes at 4° C. The supernatant was removed, and the cell pellet was resuspended in Minimum Essential Medium Eagle—alpha modification (α-MEM) supplemented with 20% fetal bovine serum (FBS) and penicillin-streptomycin (100 units/mL). The medium was changed every 3 days. After 12 days of culture, crystal violet staining colony formation assay was carried out. The cells were washed twice with ice-cold PBS. The cells were fixed with ice-cold methanol for 10 minutes. Then the cells were stained with 0.5% crystal violet dissolved in 25% methanol for 10 minutes at room temperature. The crystal violet solution was then removed, and the cells were rinsed with double-distilled water (ddH2O) until the rinse became clear. The plates were dried off, and pictures were taken for analysis.

Test [2] relates to premature aging LMNA^G609G/G609G mice. The test is described as follows: Healthspan analysis of LMNA^G609G/G609G mice. The format is in vivo, mouse. How it is done:
In the step of analyzing the healthspan of LMNA^G609G/G609G mice, for chemical treatment in mice, 2 months old LMNA^G609G/G609G mice were used. They received an intraperitoneal injection (IP) twice a week until they reached the humane point. Different dosages were used for the injection, 50 mg/kg of CBD was identified as the optimal dosage with the greatest extend in healthspan of the treated mice. CBD was dissolved in 5% DMSO and 5% polyethylene glycol (PEG) in sterile saline and stored at −80° C. for up to 1 month.

The subject of test [3] is ATF5, CEBPα and TRIB3 in skin of LMNA^G609G/G609G mice. The test is described as follows: Immunofluorescence staining of mouse skin. The format is in vivo. The conditions noted are these: CBD treated premature aging mice. How it is done:
The tissue sections were washed twice with PBS and incubated in PBSTr (0.1% Triton X-100 in PBS) for 10 minutes. Then the cells were blocked with 5% fetal bovine serum (FBS) in PBSTr for 1 hour at room temperature. Primary antibodies diluted in 5% FBS in PBSTr were added and incubated at 4° C. overnight. On the following day, the cells were washed three times using PBSTr, incubation for 10 minutes each time. Secondary antibodies diluted in 5% FBS in PBSTr were added and incubated at room temperature for 1 hour. The cells were again washed three times using PBSTr, followed by PBS for two times. The slides were mounted with SlowFade Gold antifade reagent. Then the slides were ready to be analyzed under a confocal microscope.

Test [4] deals with p21 and p16 in wildtype and LMNA^G609G/G609G MEFs. The test is described as follows: Western blotting of senescence markers in MEFs. The format is cell-based, mouse. The conditions noted are these: 4-day CBD treatment. How it is done:
In the step of determining the protein expression levels of senescence markers, the primary mouse embryonic fibroblasts (MEFs) at passage 3 were seeded and cultured in 6-well plate and treated with CBD for 4 days. The cells were then washed twice with ice-cold phosphate buffered saline (PBS). RIPA 150 buffer (20 mM Tris-HCl pH 7.5, 1 mM EDTA pH 8.0, 150 mM NaCl, 1% Nonidet P-40, 0.5% sodium deoxycholate) supplemented with 1 mM dithiothreitol (DTT) and proteinase inhibitors was added to the cells and shook at 4° C. for 15 minutes. The cells were then collected into Eppendorf tubes and centrifuged at 12000 rpm at 4° C. for 10 minutes. The supernatant was collected and 6×SDS sample buffer (20 mM Tris-HCl pH 7.5, 30% glycerol, 10% sodium dodecyl sulfate (SDS), 0.6 M DTT, 0.03% bromophenol blue) was added. The samples were boiled for 5 minutes. Then they were ready for sodium dodecyl sulfate-polyacrylamide gel electrophoresis (SDS-PAGE) for Western blotting analysis. Depending on the sizes of target proteins, 7-15% polyacrylamide separating gel and 4% polyacrylamide stacking gel were made. Samples and protein ladders were loaded onto the polyacrylamide gel. Sodium dodecyl sulfate-polyacrylamide gel electrophoresis (SDS-PAGE) was performed in running buffer (25 mM Tris-HCl, 190 mM glycine and 0.1% SDS) under constant voltage of 100V for 20-30 minutes until the samples and protein ladders reached the separating gel. By then, SDS-PAGE was set to run under constant voltage of 120V for about 1 hour, depending on the size of target proteins. The proteins in the separating gel were transferred to polyvinylidene difluoride (PVDF) membrane in transfer buffer (25 mM Tris-HCl, 190 mM glycine, and 20% methanol) at constant current 0.4 A for 1.5 hours on ice. The membranes were blocked with 5% skimmed milk in phosphate buffered saline Tween-20 solution (PBST): 1×PBS and 0.1% Tween-20 and shook at room temperature for 1 hour. Primary antibodies diluted in 5% skimmed milk in PBST were added to the membrane and shook at 4° C. overnight. […]

The test system of test [5] is Human mesenchymal stem cells (MSCs). The test can be described thus: Senolytic effect in MSCs upon irradiation induced senescence (relative cell viability). The test is classed as cell-based. Conditions: 24-hour treatment, normalized to non-irradiated control. As to the method:
Human mesenchymal stem cells (MSCs) were counted by using LUNA-II Automated Cell Counter. 1.0×10^5 cells were seeded to each well of 6-well plate and cultured for 24 hours. The cells were divided into two groups: non-irradiated and irradiated group. The irradiated group received gamma irradiation by irradiator. 10 Gy was the dosage of irradiation used. 24 hours after the irradiation, the non-irradiated and irradiated group were treated with different concentration of chemical. After 24-hour treatment, the cells were counted again using LUNA-II Automated Cell Counter. The population doubling level (PDL) which reflects the proliferation rate of cells was calculated by the formula: n=3.32×(logUCY−logI)+X, where n=the PDL number, UCY=the cell yield at that time point, I=the initial cell number, and X=the doubling level of the cells used to initiate the subculture being quantitated.
The relative cell viability was calculated by normalizing each sample to non-irradiated control sample. […] As CBD selectively killed senescent MSCs while keeping proliferating MSCs unharmed, it was discovered to be a novel senolytic. Referring to FIG. 12b, Western blotting was carried to investigate the mechanism behind CBD's senolytic effect. […] While as proliferating and senescent MSCs responded differently in phosphorylated akt level.

The mark [6] stands for this setting: 50 mg/kg CBD IP twice a week from 2 months old.
[7] abbreviates: wildtype and LMNA^G609G/G609G MEFs.

SMILES strings stand for the structures.

With `C=C(C)[C@@H]1CCC(C)=C[C@H]1c1c(O)cc(CCCCC)cc1O` [CBD, Cannabidiol], in test [1], the number of colonies result is on record as “higher number of colonies”. In test [2] (setting [6]), the “increase in maximum healthspan” value is 19.8% and the “increase in median healthspan” value is listed as 8%. In addition, the “increase of healthspan (FIG. 6b legend)” value in test [2] (50 mg/kg CBD twice a week from 2 months old) was 11.2%. Also, the “optimal dosage (greatest extend in healthspan)” value in test [2] (IP twice a week, from 2 months old) turned out to be 50 mg/kg. Besides, in test [3], the “ATF5 protein level decrease in skin” value is listed as “reversed”, the “CEBPα protein level decrease in skin” value is on record as “reversed” and the “TRIB3 protein level decrease in skin” value is recorded as “reversed”. Moreover, in test [4] (MEFs), the progerin levels result is “not affected”. Further, in test [4] (setting [7]), the p16 level entry is reported as “downregulate” and the p21 level entry was “downregulate”. The “relative cell viability, irradiated senescent MSCs” value in test [5] (10 Gy gamma irradiation) is reported as “significantly decrease the cell viability”. In addition, the “relative cell viability, non-irradiated control MSCs” value in test [5] is on record as “significantly increase the cell viability”.

These data come from patent US20220354805A1, “Cannabidiol (CBD) as Chemical for Treating Aging-related Degenerative Diseases and Promoting Health Aging” (Hemix Biotech Limited, priority 2021, published 2022).
